From patent US20120321584A1, “PROCESSES FOR PREPARING AMINE SALTS OF KMUP-3 AND USE THEREOF” (KAOHSIUNG MEDICAL UNIVERSITY, priority 2011, published 2012)

Experiments:
cGMP = cGMP in neonatal myocytes; assay type: cell-based, rat
Experimental: eNOS/p-NOS and cAMP/cGMP in neonatal myocytes. To determine the role of the NO/cGMP-pathway in heart, neonatal rat myocyte protein was extracted followed by Western blotting to measure the expression of eNOS, phosphorylated eNOS (p-eNOS), cAMP, and cGMP (FIG. 14 A-14 B and FIG. 15 A-15 B). KMUP-3 increased eNOS and p-eNOS in neonatal rat cardiomyocytes and the effect was reduced by L-NAME (100 μM)-pretreatment (FIG. 14A and FIG. 14B). KMUP-3 increased both cAMP and cGMP.

eNOS = eNOS expression in aorta and pulmonary artery rings, Western blotting; assay type: cell-based, rat; conditions: aorta and pulmonary artery (PA) ring
Experimental: ROCKII expression and vascular resistance. To determine whether KMUP-3's ROCKII activity increased vascular resistance, aorta and pulmonary artery (PA) ring protein was extracted followed by Western blotting to measure the expression ROCKII and eNOS.
(§1) Protein extraction and Western blotting analysis. Briefly, after incubation with test agents in an organ bath, isolated beating atrium was frozen and pulverized to a fine powder at the temperature of liquid nitrogen. Atrium powders were then homogenized in protein extraction reagent (Pierce Biotechnology, Inc., Rockford, Ill.) by sonication. The samples were sonicated 10 sec three times and centrifuged at 13,000 rpm at 4° C. for 30 min. The protein concentrations of supernatants were determined by using bovine serum albumin as the standard. The cell extracts were then boiled in a ratio of 4:1 with sample buffer (Tris 100 mM, pH 6.8; glycerol 20%, Sodium dodecyl sulfate (SDS) 4% and bromophenol blue 0.2%). Electrophoresis was performed using 10% SDS-PAGE and transferred to nitrocellulose membranes (Millipore Corp., Billerica, Mass.). […] The intensity of the bands was measured by densitometry. eNOS or phosphorylated eNOS were extracted from cell culture of neonatal myocytes, PA ring and aortic ring (2-3 mm) of rats and measured by Western blotting analysis.

[1] = Hemodynamic measurements in anesthetized rats (LVSP, dP/dt, MABP, HR); assay type: in vivo, Wistar rats
Experimental: Hemodynamic measurements were carried out in male Wistar rats weighting 300˜350 g, anesthetized with pentobarbital sodium (40 mg kg^−1, i.p.). In brief, polyethylene tubing (PE50) was placed in the trachea to keep the airway patent, and rats continued to breathe spontaneously. Subsequently, rats were used to record hemodynamic and cardiovascular function. Vascular catheters (PE50) were placed in the femoral arteries to measure mean arterial blood pressure (MABP) and heart rate (HR). Changes of MABP and HR caused by KMUP-3 or KMUP-3 amine salt were recorded from the femoral artery with a pressure transducer (Gould, Model P50, U.S.A.), connected with a Pressure Processor Amplifier (Gould, Model 13-4615-52, U.S.A.). A femoral vein was used for intravenous administration of KMUP-3 or KMUP-3 amine salt. A specialized transducer tip catheter was placed in the right carotid artery and advanced into the left ventricle of the heart for measurement of left ventricular pressure (LVSP) or contractility; dP/dt at 50 mm Hg, an index of cardiac contractility, was derived from the left ventricular pressure trace; post-hoc vascular resistance was calculated as mean arterial blood pressure/peripheral cardiac output (MABP/PCO). Body temperature was monitored throughout the experiment and maintained between 37 and 37.5° C. by using a heating pad.
Each dose of active drugs was administered as a 20-min infusion in a series of escalating doses dissolved in a 5% dextrose water vehicle. […] KMUP-3 HCl or KMUP-3 amine salt were infused at 0.03, 0.05, and 0.075 μg/kg/20 min for the measurement of FABP, intraperitoneally injected at 0.03, 0.05 and 0.1 mg/kg for the measurement of MABP and HR and infused by intravenous injection for 2 min at 0.5, 1.0, 3.0 mg/kg dissolved in 5% dextrose water vehicle (2 ml) for the measurement of LV systolic pressure (LVSH), ABP, dP/dt, and HR. The primary hemodynamic variables were computed using commercial software and a signal processing workstation. Animals were randomly divided into one of six treatment or vehicle groups. After the completion of the surgical protocol, animals were allowed to stabilize for 1 h, and baseline data were collected at 5-min intervals for 30 min before the treatment.

CPI-17 = CPI-17 phosphorylation in electrically stimulated beating left atria; assay type: cell-based, guinea-pig
Experimental: as §1
PK, ROCKII and CIP-17 expression and pretreatment of beating left atrium. To examine whether KMUP-3 or KMUP-3 amine salt affects the protein expression in beating atrium, PKA, ROCKII, PKG and phosphorylated CIP-17 was determined by Western blotting, respectively. […]

[2] = anesthetized rats, intravenous injection 0.5-3 mg/kg within 2 min
[3] = intra-peritoneal injection 0.03-0.1 mg/kg
[4] = intravenous perfusion 0.03-0.075 μg/kg/min×20 min

For `Cn1c(=O)c2c(ncn2CCN2CCN(c3ccc([N+](=O)[O-])cc3)CC2)n(C)c1=O` [KMUP-3, 7-[2-[4-(4-nitrobenzene)piperazinyl]ethyl]-1,3-dimethylxanthine], which cGMP (cGMP) is on record?
Its cGMP is “increased”.

And the “cGMP increase compared with cAMP increase” value (cGMP)?
Its value is “increased more than the former”.

And the “Vascular eNOS expression” value (eNOS)?
Its value is “did increase”.

And the “LVSP (left ventricular systolic pressure)” value [1, 2]?
Its value is “dose-dependently increased”.

And the “MABP (mean arterial blood pressure)” value [1, 2]?
Its value is “dose-dependently increased”.

What about the dP/dt [1, 2] of the same compound?
The dP/dt was “dose-dependently increased”.

And the HR [1, 3]?
Its HR is “dose-dependently increased”.

And the MABP [1, 3]?
Its MABP is “dose-dependently increased”.

What about the HR [1, 4] of the same compound?
The HR was “dose-dependently increased”.

And the MABP [1, 4]?
Its MABP is “dose-dependently increased”.

And the “Phosphorylation of CPI-17” value (CPI-17)?
The value was “concentration-dependently increased”.
